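Five concentrations, 48 hours, 96-well plates. TGI: concentration producing complete growth inhibition.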
Legend:
Test in all cases: inhibition of tumour cell growth, NCI panel, 48 h
SN12C renal = tested on: SN12C renal
SF-268 CNS = tested on: SF-268 CNS
UACC-62 melanoma = tested on: UACC-62 melanoma
M14 melanoma = tested on: M14 melanoma
SK-MEL-28 melanoma = tested on: SK-MEL-28 melanoma
SK-OV-3 ovarian = tested on: SK-OV-3 ovarian
HCT-15 colon = tested on: HCT-15 colon
SNB-75 CNS = tested on: SNB-75 CNS
A549 NSCLC = tested on: A549 NSCLC
HS 578T breast = tested on: HS 578T breast
HL-60(TB) leukemia = tested on: HL-60(TB) leukemia
T-47D breast = tested on: T-47D breast

| Structure (SMILES) | TGI (SN12C renal) | TGI (SF-268 CNS) | TGI (UACC-62 melanoma) | TGI (M14 melanoma) | TGI (SK-MEL-28 melanoma) | TGI (SK-OV-3 ovarian) | TGI (HCT-15 colon) | TGI (SNB-75 CNS) | TGI (A549 NSCLC) | TGI (HS 578T breast) | TGI (HL-60(TB) leukemia) | TGI (T-47D breast) |
| --- | --- | --- | --- | --- | --- | --- | --- | --- | --- | --- | --- | --- |
| CCC(C)[C@@H](NCc1ccccc1)[C@H](OCc1ccccc1)[C@@H]1COC(C)(C)O1 (stereo partly drawn) | 49 µM | 68.6 µM | 42.3 µM | > 100 µM | 71.4 µM | > 100 µM | 31.6 µM | > 100 µM | 78.8 µM | 70.7 µM | – | – |
| O=C(O)CCCl | > 5000 µM | > 5000 µM | 4740 µM | > 5000 µM | > 5000 µM | > 5000 µM | > 5000 µM | > 5000 µM | > 5000 µM | – | > 5000 µM | – |
| O=C1C2CCCCC2C(=O)N1n1c(Cc2ccc(Cl)cc2)n[nH]c1=O (stereo not drawn) | > 100 µM | > 100 µM | > 100 µM | > 100 µM | – | > 100 µM | > 100 µM | > 100 µM | > 100 µM | > 100 µM | – | > 100 µM |
| Cc1ccc(C2CC(=O)CC(c3ccc(C)cc3)C23C(=O)NC(=O)NC3=O)cc1 (stereo not drawn) | > 100 µM | > 100 µM | > 100 µM | > 100 µM | > 100 µM | – | > 100 µM | > 100 µM | – | – | – | > 100 µM |
| Cc1ccc(C)n1-c1ccccc1C1SCCCS1 | > 100 µM | > 100 µM | > 100 µM | > 100 µM | > 100 µM | > 100 µM | > 100 µM | > 100 µM | > 100 µM | > 100 µM | > 100 µM | – |
| [O-]/[N+](=C\c1ccccc1)[C@H](COCc1ccccc1)c1ccccc1 | – | > 100 µM | – | – | > 100 µM | > 100 µM | – | > 100 µM | > 100 µM | – | 62.1 µM | – |
| COc1ccc(/C=C2\CN(C)Cc3c2nc(N)nc3-c2ccc(OC)cc2)cc1 | > 100 µM | > 100 µM | > 100 µM | > 100 µM | > 100 µM | > 100 µM | – | > 100 µM | > 100 µM | – | 85.2 µM | – |
| Cc1nc2c(=S)[nH]ncc2[nH]1 | > 100 µM | – | > 100 µM | > 100 µM | > 100 µM | > 100 µM | > 100 µM | > 100 µM | > 100 µM | – | > 100 µM | > 100 µM |
| COc1c2c(c3c(c1C1OC(C)[C@@H](C)O1)CC(C)(C)O3)C(=O)c1ccccc1C2=O (stereo partly drawn) | > 100 µM | > 100 µM | > 100 µM | > 100 µM | > 100 µM | > 100 µM | > 100 µM | > 100 µM | > 100 µM | – | 31.6 µM | – |
| C=C1C(=O)OC2/C=C(\C)C(OC(C)=O)C3OC3C(C)(O)CC(OC(=O)/C(C)=C/C)C12 (stereo not drawn) | 47.4 µM | 30.2 µM | 23.5 µM | 16 µM | 16.2 µM | 34.5 µM | 30.8 µM | 97.4 µM | 42.6 µM | – | 5.81 µM | – |
| c1csc(-c2ccc(-c3ccc(-c4ccc(-c5cccs5)s4)s3)s2)c1 | > 100 µM | > 100 µM | > 100 µM | > 100 µM | – | > 100 µM | > 100 µM | > 100 µM | – | > 100 µM | 53.6 µM | – |
| CCOC(=O)c1cn(-c2ccccc2)c(=S)n2c1nc1ccccc12 | > 100 µM | 94.9 µM | > 100 µM | > 100 µM | > 73.4 µM | > 100 µM | > 100 µM | > 100 µM | > 100 µM | – | – | > 100 µM |
| COc1ccc(-c2nc(N)c(C#N)c3c2CCS(=O)(=O)c2ccc(C)cc2-3)cc1OC | > 100 µM | > 100 µM | 51.7 µM | > 100 µM | > 100 µM | – | > 100 µM | 69.7 µM | > 100 µM | 77.6 µM | – | > 100 µM |
| CO/C(=N\N=C\c1cc(OC)ccc1OC)c1ccncc1 | > 10 µM | > 10 µM | – | – | > 10 µM | > 10 µM | > 10 µM | > 10 µM | > 10 µM | – | > 10 µM | > 10 µM |
| CC1=NN(C(=O)CSc2nnc(SCC(=O)N3N=C(C)CC3(O)c3ccccc3)s2)C(O)(c2ccccc2)C1 (stereo not drawn) | > 100 µM | 47.2 µM | 56.3 µM | 36.1 µM | > 100 µM | > 100 µM | > 100 µM | – | > 100 µM | 70.2 µM | – | – |
| Cc1ccc(S(=O)(=O)N/N=C/c2oc(-c3cccc([N+](=O)[O-])c3)c(-c3cccc([N+](=O)[O-])c3)c2[N+](=O)[O-])cc1 | > 100 µM | 66.7 µM | 49.3 µM | > 100 µM | > 100 µM | 68.5 µM | > 100 µM | > 100 µM | > 100 µM | – | 57.1 µM | – |
| C[N+]1(C)CCCC1C(=O)[O-] (stereo not drawn) | > 100 µM | > 100 µM | > 100 µM | > 100 µM | > 100 µM | > 100 µM | > 100 µM | > 100 µM | > 100 µM | – | > 100 µM | – |

| Structure (SMILES) | TGI (SN12C renal) | TGI (SF-268 CNS) | TGI (UACC-62 melanoma) | TGI (M14 melanoma) | TGI (SK-MEL-28 melanoma) | TGI (SK-OV-3 ovarian) | TGI (HCT-15 colon) | TGI (SNB-75 CNS) | TGI (A549 NSCLC) | TGI (HS 578T breast) | TGI (HL-60(TB) leukemia) | TGI (T-47D breast) |
| --- | --- | --- | --- | --- | --- | --- | --- | --- | --- | --- | --- | --- |
| Clc1ccc(-c2ccc(-c3nnc(CCc4nnc(-c5ccc(-c6ccc(Cl)cc6)o5)o4)o3)o2)cc1 | > 100 µM | > 100 µM | > 100 µM | > 100 µM | > 100 µM | > 90.4 µM | > 100 µM | – | > 100 µM | 86 µM | – | > 100 µM |
| CCN(CC)CCNC(=O)c1ccccc1NC(=O)C(=O)Nc1ccccc1C(=O)NCCN(CC)CC | > 100 µM | > 100 µM | > 100 µM | 33.9 µM | > 100 µM | > 100 µM | > 100 µM | > 100 µM | > 100 µM | – | 32.4 µM | – |
| O=C1c2ccccc2C(=O)N1n1c(Cc2ccccc2)n[nH]c1=O | > 100 µM | – | > 100 µM | > 100 µM | > 100 µM | – | > 100 µM | > 100 µM | > 100 µM | > 100 µM | – | > 100 µM |
| CC[n+]1cnc(N)c2c(-c3ccc(Cl)cc3)cn(-c3ccc(C)cc3)c21 | 25.2 µM | 26.7 µM | 24.3 µM | 4.14 µM | 21.2 µM | 29 µM | 32.6 µM | 14.1 µM | 25.7 µM | – | 44.3 µM | 32.2 µM |
| CCOC(=O)CCCn1nnc(C(=O)OCC)c1C(=O)OCC | > 100 µM | > 100 µM | > 100 µM | – | > 100 µM | – | > 100 µM | > 100 µM | > 100 µM | > 100 µM | – | > 100 µM |
| CCOC(=O)c1ccc(N=NN(C)C(=O)C(C)N)cc1 (stereo not drawn) | > 100 µM | > 100 µM | > 100 µM | > 100 µM | > 100 µM | – | > 100 µM | > 100 µM | – | – | > 100 µM | > 100 µM |
| CC12CC3C(CC1SCC(=O)O2)C3(C)C (stereo not drawn) | > 100 µM | > 100 µM | – | > 100 µM | > 100 µM | > 100 µM | > 100 µM | > 100 µM | > 100 µM | – | > 100 µM | – |
| COC(=O)c1cn(CCCC(=O)O)nn1 | > 100 µM | > 100 µM | > 100 µM | – | > 100 µM | – | > 100 µM | > 100 µM | > 100 µM | > 100 µM | – | > 100 µM |
| O=C(CSc1nnc(-c2ccc(N=Cc3ccc(Cl)cc3)cc2)o1)Nc1ccccc1Cl | – | > 100 µM | > 100 µM | > 100 µM | > 100 µM | > 100 µM | > 100 µM | > 100 µM | > 100 µM | – | > 100 µM | – |
| COCOc1ccc(C(=O)C(C)c2ccc(OCOC)cc2OCOC)c(O)c1 (stereo not drawn) | > 100 µM | > 100 µM | > 100 µM | > 100 µM | > 100 µM | > 100 µM | > 100 µM | > 100 µM | > 100 µM | – | > 100 µM | – |
| C1=C(c2ccccc2)CN(c2ccccc2)OC1 | > 100 µM | > 100 µM | > 100 µM | > 100 µM | > 100 µM | > 100 µM | > 100 µM | > 100 µM | > 100 µM | – | > 100 µM | – |
| O=C1N[C@H]2c3c(Cl)sc(Cl)c3/C(=N/O)[C@H]2O1 | > 100 µM | > 100 µM | > 100 µM | > 100 µM | > 100 µM | > 100 µM | > 100 µM | > 100 µM | > 100 µM | – | 57.9 µM | > 100 µM |
| Clc1ccc2c(SCC3CO3)c3ccccc3nc2c1 (stereo not drawn) | 7.35 µM | > 100 µM | > 100 µM | 3.34 µM | 21.1 µM | 53.4 µM | 3.34 µM | 60.5 µM | 20.3 µM | – | 2.59 µM | 4.97 µM |
| C1OCC2S[C@@H]3COCO[C@@H]3C2O1 (stereo partly drawn) | > 100 µM | > 100 µM | > 100 µM | > 100 µM | > 100 µM | > 100 µM | > 100 µM | > 100 µM | > 100 µM | – | > 100 µM | – |
| CN(C)CC(/C(Cc1ccccc1)=N\NC(=O)C[n+]1ccccc1)c1ccccc1 (stereo not drawn) | > 100 µM | > 100 µM | > 100 µM | > 100 µM | > 100 µM | > 100 µM | > 100 µM | > 100 µM | > 100 µM | – | > 100 µM | – |
| COc1ccc(Cn2c(C)nc3c2C(=O)c2ccccc2C3=O)cc1 | > 75 µM | 68.1 µM | 14 µM | 23.5 µM | > 75 µM | > 75 µM | > 75 µM | 71.9 µM | 36.1 µM | – | 22.2 µM | – |

From PubChem BioAssay (NCI)
